Results from paper PMC11878344 (Angewandte Chemie (International Ed. in English), 2025).
Where two headings read alike, the source gives them in different places.

Columns and labels:
[1] = target: T1, human MAGL (Homo sapiens, UniProt Q99685); experiment: In vitro MAGL inhibition assay (2-AG hydrolysis followed by mass spectrometry); type: biochemical
T1 sequence (Q99685 1-303): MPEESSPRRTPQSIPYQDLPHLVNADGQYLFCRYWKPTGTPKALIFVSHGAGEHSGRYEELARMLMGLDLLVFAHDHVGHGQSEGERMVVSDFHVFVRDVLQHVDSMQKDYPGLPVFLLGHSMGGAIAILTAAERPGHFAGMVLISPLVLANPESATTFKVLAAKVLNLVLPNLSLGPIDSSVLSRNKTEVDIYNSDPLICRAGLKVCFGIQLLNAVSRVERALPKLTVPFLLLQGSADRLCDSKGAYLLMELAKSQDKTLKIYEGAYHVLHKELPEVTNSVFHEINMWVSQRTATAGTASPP
Experimental: (§1) 4. Experimental Details of Biochemical Assays and Crystal Structure
(§2) In Vitro MAGL Inhibition Assay
(§3) Compounds were profiled for MAGL inhibitory activity by determining the enzymatic activity by following the hydrolysis of the natural substrate 2-arachidonoylglycerol (2-AG), resulting in arachidonic acid, which can be followed by mass spectrometry. The 2-AG assay was carried out in 384 well assay plates (PP, Greiner Cat# 784201) in a total volume of 20 µL. Compound dilutions were made in 100% DMSO (VWR Chemicals 23500.297) in a polypropylene plate in 3-fold dilution steps to give a final concentration range in the assay from 12.5 µM to 0.8 pM. 0.25µL compound dilutions (100% DMSO) were added to 9 µL MAGL in assay buffer (50 mM TRIS (GIBCO, 15567-027), 1 mM EDTA (Fluka, 03690-100 mL), 0.01% (v/v) Tween. After shaking, the plate was incubated for 15 min at RT. To start the reaction, 10 µL 2-arachidonoylglycerol in assay buffer was added. The final concentrations in the assay were 50 pM MAGL and 8 µM 2-arachidonoylglyerol. After shaking and 30 min incubation at RT, the reaction was quenched by the addition of 40µL of ACN containing 4 µM of d8-arachidonic acid. The amount of arachidonic acid was traced by an online SPE system (Agilent Rapidfire) coupled to a triple quadrupole mass spectrometer (Agilent 6460). A C18 SPE cartridge (G9205A) was used in an ACN/water liquid setup. The mass spectrometer was operated in negative electrospray mode following the mass transitions 303.1 → 259.1 for arachidonic acid and 311.1 → 267.0 for d8-arachidonic acid. The activity of the compounds was calculated based on the ratio of intensities [arachidonic acid / d8- […]
(§4) This assay was performed as first described before.[39] […]

[2] = target: T2, mouse MAGL (Mus musculus, UniProt O35678); experiment: as above; type: biochemical
T2 sequence (O35678 1-303): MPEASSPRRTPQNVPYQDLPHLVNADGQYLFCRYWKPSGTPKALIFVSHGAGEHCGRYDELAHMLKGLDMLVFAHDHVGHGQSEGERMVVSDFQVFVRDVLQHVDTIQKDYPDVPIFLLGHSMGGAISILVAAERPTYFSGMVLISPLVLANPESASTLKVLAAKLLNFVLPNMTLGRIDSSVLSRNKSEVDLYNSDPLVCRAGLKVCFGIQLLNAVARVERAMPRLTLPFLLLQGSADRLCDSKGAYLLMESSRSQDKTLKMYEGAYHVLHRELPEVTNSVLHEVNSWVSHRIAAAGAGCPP
Experimental: as §1, §2, §3, §4

[3] = target: T3, NanoLuc luciferase MAGL fusion protein in HEK293A cells (Homo sapiens, UniProt Q99685); experiment: Cellular MAGL NanoBRET target engagement assay; type: cell-based
T3 construct: expressed in transfected cells
T3 sequence (Q99685 1-303): T1 sequence (Q99685 1-303)
Experimental: We, therefore, confirmed cellular MAGL target engagement in a nanoBRET assay using live HEK293 cells.[39] […] To overcome the low cellular potency of 4, we exploited the modular construction principle to modulate unfavorable physicochemical properties and investigated less polar, privileged head groups[23, 33, 40] (Supporting Information Table S4). […]
This assay was performed as first described before.[39]
Compounds were profiled by a novel cellular MAGL NanoBRET™ Target Engagement assay, which measures the apparent affinity of test compounds by competitive displacement of a Roche-developed Tracer (WO2021058443, Example 21)[21], reversibly bound to a NanoLuc® luciferase MAGL fusion protein in cells.
A HEK293A stable cell line expressing NanoLuc_MAGL was established at Roche and assigned as HEK293A_NanoLuc_MAGL clone #43. A fixed concentration of tracer is added to cells expressing the NanoLuc®_MAGL fusion protein to generate a BRET reporter complex. The introduction of competing compounds results in a dose-dependent decrease in NanoBRET™ energy transfer, which allows quantification of the intracellular affinity of the target protein for the […]
HEK293A_NanoLuc_MAGL clone #43 cells were cultured in DMEM (Gibco 31966) with 10% FBS and 800 ug/ml G418. The NanoBRET assay was performed by seeding 5000 cells/well in Costar low-volume white 384-well plate in assay buffer (1% FBS in HBSS), followed by adding 50 nM final concentration of tracer and serial dilutions of test compounds. After 2 hours of incubation, Nanoluciferase substrates and extracellular inhibitors were added following the manufacturer's protocol (Promega, #N2520), and the NanoBRET signaling were quantified with the Paradigm

[4] = Fluorescence excitation/absorption and emission maxima; type: physicochemical; conditions: PBS pH 7.4
Description: Figure S8. Fluorescence excitation and emission spectra of the utilized fluorescent reporters in PBS pH 7.4. Spectra l differences between probes carrying the same fluorophore were […]
Table S6. Fluorescence excitation, emission maxima, and Stokes-shift in PBS pH 7.4 for the used fluorophores, respectively. difference s between probes with the same fluorophore were […]
λmax Excitation [nm] λmax Emission [nm] Stokes-shift [nm]
(1 picture or pasted object on this page, not shown here)

[5] = target: Cyno MAGL (Macaca fascicularis, UniProt A0A2K5V664); experiment: In vitro MAGL inhibition assay; type: biochemical, cynomolgus monkey; conditions: Supporting Information Table S4
Experimental: as §1, §2
Compounds were profiled for MAGL inhibitory activity by determining the enzymatic activity by following the hydrolysis of the natural substrate 2-arachidonoylglycerol (2-AG), resulting in arachidonic acid, which can be followed by mass spectrometry. The 2-AG assay was carried out in 384 well assay plates (PP, Greiner Cat# 784201) in a total volume of 20 µL. Compound dilutions were made in 100% DMSO (VWR Chemicals 23500.297) in a polypropylene plate in 3-fold dilution steps to give a final concentration range in the assay from 12.5 µM to 0.8 pM. […] The activity of the compounds was calculated based on the ratio of intensities [arachidonic acid / d8- […]

[6] = test system: MAGL; design: method as in PMID 35089028, PMID 34764251, PMID 34328319, PMID 29498843; conditions: known MAGL ligands of Figure 1; cited from earlier work
[7] = Supporting Information Tables S1-S5, read-out: IC50 hMAGL
[8] = Supporting Information Tables S1-S5, read-out: IC50 mMAGL
[9] = Table 1, n=1 to 3, read-out: hMAGL IC50
[10] = Table 1, n=1 to 3, read-out: mMAGL IC50
[11] = Table 1, transfected HEK293 cells, n=1 to 3, read-out: HEK293 nanoBRET IC50
[12] = Table 2, mean of three independent measurements ± SD, read-out: hMAGL IC50±SD
[13] = Table 2, mean of three independent measurements ± SD, read-out: mMAGL IC50±SD
[14] = Table 2, mean of three independent measurements ± SD, read-out: HEK 293 nanoBRET IC50±SD

Chain of Cyno MAGL (A0A2K5V664 entry or part of it): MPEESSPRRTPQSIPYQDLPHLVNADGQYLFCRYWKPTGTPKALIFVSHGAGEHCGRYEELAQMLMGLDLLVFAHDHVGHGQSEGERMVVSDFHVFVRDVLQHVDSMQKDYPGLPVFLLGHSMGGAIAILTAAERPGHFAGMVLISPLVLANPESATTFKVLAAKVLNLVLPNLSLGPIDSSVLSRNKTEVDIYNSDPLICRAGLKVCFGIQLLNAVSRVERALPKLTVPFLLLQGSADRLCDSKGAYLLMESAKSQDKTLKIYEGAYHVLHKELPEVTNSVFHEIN

| SMILES | IC50 [1, 7] | IC50 [2, 8] | IC50 [1, 9] | IC50 [2, 10] | IC50 [3, 11] | also measured |
| --- | --- | --- | --- | --- | --- | --- |
| O=C1CO[C@H]2CCN(C(=O)N3CC(OCc4ccccc4OCCNC(=O)OCc4ccccc4)C3)C[C@H]2N1 [Compound S1] | 70 nM |  |  |  |  |  |
| O=C1CO[C@H]2CCN(C(=O)N3CC4(CC(OCc5ccccc5OCCNC(=O)OCc5ccccc5)C4)C3)C[C@H]2N1 [Compound S3] | 11 nM | 38 nM |  |  |  |  |
| CN1/C(=C\C=C\C2=[N+](CCCCCC(=O)NCCOc3ccccc3CC3CC4(C3)CN(C(=O)N3CC5(COC(=O)N5)C3)C4)c3ccccc3C2(C)C)C(C)(C)c2ccccc21 [Compound S21] | 0.122 nM | 0.119 nM |  |  |  |  |
| O=C1CO[C@H]2CCN(C(=O)N3CC(OCc4cccc(OCCNC(=O)OCc5ccccc5)c4)C3)C[C@H]2N1 [Compound S9] | 44 nM | 38 nM |  |  |  |  |
| O=C(NCCOc1ccccc1COCC1CN(C(=O)CC[C@@H]2COC(=O)N2)C1)OCc1ccccc1 [Compound S19] | 9.2 nM | 66 nM |  |  |  |  |
| O=C1CO[C@H]2CCN(C(=O)N3C[C@@H]4C(COCc5ccccc5OCCNC(=O)OCc5ccccc5)[C@@H]4C3)C[C@H]2N1 (stereo partly drawn) [Compound S6] | 97 nM | 315 nM |  |  |  |  |
| O=C1CO[C@H]2CCN(C(=O)N3CCC4(CC3)CC(OCc3ccccc3OCCNC(=O)OCc3ccccc3)C4)C[C@H]2N1 [Compound S5] | 7 nM | 21 nM |  |  |  |  |
| O=C1CO[C@H]2CCN(C(=O)N3CC4(CCC(OCc5ccccc5OCCNC(=O)OCc5ccccc5)CC4)C3)C[C@H]2N1 [Compound S4] | 15 nM | 38 nM |  |  |  |  |
| O=C1NC2(CO1)CN(C(=O)N1CC(COCc3ccccc3OCCNc3ccc([N+](=O)[O-])c4nonc34)C1)C2 [Compound 6] |  |  | 0.72 nM | 1.03 nM | 318 nM |  |
| O=C1CO[C@H]2CCN(C(=O)N3CC(COCc4ccccc4OCCCCCNC(=O)OCc4ccccc4)C3)C[C@H]2N1 [Compound S8] | 46 nM | 144 nM |  |  |  |  |
| O=C1CO[C@H]2CCN(C(=O)N3CC4(CC(OCc5cccc(OCCNC(=O)OCc6ccccc6)c5)C4)C3)C[C@H]2N1 [Compound S11] | 28 nM | 76 nM |  |  |  |  |
| O=C1CO[C@H]2CCN(C(=O)N3CC(COCc4ccccc4OCCNC(=O)OCc4ccccc4)C3)C[C@H]2N1 [Compound 3] | 2 nM | 5 nM | 2.14 nM | 5.41 nM | 141 nM |  |
| O=C1CO[C@H]2CCN(C(=O)N3CC(COCc4ccccc4OCCCNC(=O)OCc4ccccc4)C3)C[C@H]2N1 [Compound S7] | 3 nM | 7 nM |  |  |  |  |
| O=C1NC2(CO1)CN(C(=O)N1CC3(CC(Cc4ccccc4OCCNc4ccc([N+](=O)[O-])c5c4NON5)C3)C1)C2 [Compound 8] | 0.124 nM | 0.138 nM | 0.09 nM | 0.11 nM | 307 nM | λmax Em (fluorescence emission maximum) [4]: 554 nm; λmax Ex (fluorescence excitation maximum) [4]: 479 nm; IC50 [1, 12]: 0.09 ± 0.03 nM; IC50 [2, 13]: 0.12 ± 0.04 nM; IC50 [3, 14]: 308 ± 114 nM |
| O=C1CO[C@H]2CCN(C(=O)N3CC(COCc4ccccc4)C3)C[C@H]2N1 [Compound 1] |  |  | 379 nM | 526 nM | > 10000 nM |  |
| O=C(NCCCCCOc1ccccc1CC1CC2(C1)CN(C(=O)O[C@H](CO)C(F)(F)F)C2)O[C@H]1CC/C=C/CCC1 [Compound 14] |  |  |  |  |  | IC50 [1, 12]: 0.31 ± 0.13 nM; IC50 [2, 13]: 0.42 ± 0.17 nM; IC50 [3, 14]: 1250 ± 507 nM |
| C#CCCCC(=O)NCCOc1ccccc1CC1CC2(C1)CN(C(=O)OC(C(F)(F)F)C(F)(F)F)C2 [Compound 13] |  |  |  |  |  | IC50 [1, 12]: 0.14 ± 0.04 nM; IC50 [2, 13]: 0.13 ± 0.05 nM; IC50 [3, 14]: 99 ± 23 nM |
| O=C(NCCOc1ccccc1COCC1CN(C(=O)N2CC3(COC(=O)N3)C2)C1)OCc1ccccc1 [Compound 5] |  |  | 0.29 nM | 0.59 nM | 61 nM | IC50 [5]: 0.094 nM |
| O=C1CO[C@H]2CCN(C(=O)N3CC(COCc4cccc(OCCNC(=O)OCc5ccccc5)c4)C3)C[C@H]2N1 [Compound 2] | 31 nM | 97 nM | 30.8 nM | 97.4 nM | 406 nM |  |
| O=C(NCCOc1ccccc1COCC1CN(C(=O)OC(C(F)(F)F)C(F)(F)F)C1)OCc1ccccc1 [Compound 7] |  |  | 0.65 nM | 0.85 nM | 222 nM |  |
| O=C1COc2ccc(C(=O)N3CC(COCc4ccccc4OCCNC(=O)OCc4ccccc4)C3)cc2N1 [Compound S18] | 7.5 nM | 35 nM |  |  |  |  |
| Cc1ccc(C(c2ccccc2)C2CCN(C(=O)N3CCC4OCC(=O)NC4C3)CC2)cc1 (stereo not drawn) [Compound 85] |  |  |  |  |  | IC50 [6]: 0.1 nM |
